# Results from US11725000B2, “Apoptosis inhibitors” (National Institute of Biological Sciences, Beijing, priority 2017, dated 2023).
# pEC50: −log10 of the molar value.
# Tested on: U2OS_Bim cells
# Assay: Apoptosis inhibition assay (Bim-induced apoptosis, cell viability by ATP level)
# Format: cell-based
# Conditions: not given
# How it was run: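 Apoptosis was triggered by doxycycline (0.1 μg/mL) induction of Bim, one hour after compound addition to U2OS_Bim cells. Survival was measured after 24 h from cellular ATP (CellTiter-Glo), relative to DMSO, with zVAD at 20 μM as rescue control. Data are duplicate means, some estimated from preliminary results.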
row,Structure (SMILES),pEC50
1,"CS(=O)(=O)c1nc(-c2cccc(OCc3ccccc3)c2)cc(C(F)(F)F)n1 [Compound 75, 4-(3-(benzyloxy)phenyl)-2-(methylsulfonyl)-6-(trifluoromethyl)pyrimidine]",4.70 to 6.00

# Same assay, conditions: U2OS_Bim cells; estimated (*Est.) / preliminary results; numbering of Tables 4a/4b; read-out: EC50
row,Structure (SMILES),pEC50
1,Cc1cc(-c2cc(F)c(=O)n(Cc3ccc4c(c3)OCO4)c2)nc(S(=O)(=O)CCC(OCc2ccccc2F)C2CCCCC2)n1 (stereo not shown) [Compound 397],6.00 to 9.00
2,Cc1cc(-c2cc(F)c(=O)n(Cc3ccc4c(c3)OCO4)c2)nc(S(=O)(=O)CCC(OCC2CCOC2)c2ccccc2)n1 (stereo not shown) [Compound 414],6.00 to 9.00
3,Cc1cc(-c2cc(F)c(=O)n(Cc3ccc4c(c3)OCO4)c2)nc(S(=O)(=O)CCC(OCc2ccncc2)c2ccccc2)n1 (stereo not shown) [Compound 402],6.00 to 9.00
4,Cc1cc(-c2cc(F)c(=O)n(Cc3ccc4c(c3)OCO4)c2)nc(S(=O)(=O)CCC(OCc2cncs2)c2ccccc2)n1 (stereo not shown) [Compound 406],6.00 to 9.00
5,Cc1cc(-c2cc(F)c(=O)n(Cc3ccc4nnn(C)c4c3)c2)nc(S(=O)(=O)CCCC(=O)N(c2ccccc2)C2CCC2)n1 [Compound 373],6.00 to 9.00
6,Cc1cc(-c2cc(F)c(=O)n(Cc3ccc4c(c3)OCO4)c2)nc(S(=O)(=O)CCC(OCc2ccccc2F)c2ccc3ncccc3c2)n1 (stereo not shown) [Compound 391],6.00 to 9.00
7,Cc1cc(-c2cc(F)c(=O)n(Cc3ccc4nnn(C)c4c3)c2)nc(S(=O)(=O)CCCC(=O)N(c2ccccc2)C2CC2)n1 [Compound 375],6.00 to 9.00
8,Cc1cc(-c2cc(F)c(=O)n(Cc3ccc4c(c3)OCO4)c2)nc(S(=O)(=O)CCCC(=O)NC23CC4CC(CC(C4)C2)C3)n1 [Compound 364],6.00 to 9.00

# Same assay, conditions: U2OS_Bim cells; estimated based on preliminary results; numbering of Tables 4a/4b; read-out: EC50
row,Structure (SMILES),pEC50
1,C[S+]([O-])c1nc(-c2ccc(=O)n(Cc3ccc4nccnc4c3)c2)cc(C(F)(F)F)n1 (stereo not shown) [Compound 245],> 5.00
2,CNc1ccc(Cn2cc(-c3cc(C(F)(F)F)nc(S(C)(=O)=O)n3)ccc2=O)cc1OC [Compound 236],> 5.00
3,CS(=O)(=O)c1nc(-c2ccc(=O)n(Cc3ccc4c(c3)NCCN4)c2)cc(C(F)(F)F)n1 [Compound 234],> 5.00
4,CCc1ccc(Cn2cc(-c3cc(C(F)(F)F)nc([S+](C)[O-])n3)ccc2=O)cc1OC (stereo not shown) [Compound 265],> 5.00
5,"COc1ccc(Cn2cc(-c3cc(F)nc(S(C)(=O)=O)n3)ccc2=O)cc1OC [Compound 201, 1-(3,4-dimethoxybenzyl)-5-(6-fluoro-2-(methylsulfonyl)pyrimidin-4-yl)pyridin-2 (1H)-one]",> 5.00
6,C[S+]([O-])c1nc(-c2ccc(=O)n(Cc3ccc4c(c3)NCCO4)c2)cc(C(F)(F)F)n1 (stereo not shown) [Compound 243],> 5.00
7,COc1ccc(Cn2cc(-c3cc(C(F)(F)F)nc(S(=O)(=O)Cc4ccncc4)n3)ccc2=O)cc1OC [Compound 190],> 5.00
8,CS(=O)(=O)c1nc(-c2ccc(=O)n(Cc3ccc4cccnc4c3)c2)cc(C(F)(F)F)n1 [Compound 252],> 5.00
9,CCc1ccc(Cn2cc(-c3cc(C(F)(F)F)nc([S+](C)[O-])n3)ccc2=O)cc1CC (stereo not shown) [Compound 267],> 5.00
10,"COc1ccc(Cn2cc(-c3cc(C(F)F)nc(S(=O)(=O)CCCO)n3)ccc2=O)cc1OC [Compound 273, 5-(6-(difluoromethyl)-2-((3-hydroxypropyl)sulfonyl)pyrimidin-4-yl)-1-(3,4-dimethoxybenzyl)pyridin-2 (1H)-one]",5.00 to 6.00
11,COc1ccc(Cn2cc(-c3cc(-c4ccco4)nc(S(C)(=O)=O)n3)ccc2=O)cc1OC [Compound 206],> 5.00
12,COc1ccc(Cn2cc(-c3cc(-c4cnco4)nc([S+](C)[O-])n3)ccc2=O)cc1OC (stereo not shown) [Compound 214],> 5.00
13,COc1ccc(Cn2cc(-c3cc(-c4cnco4)nc(S(C)(=O)=O)n3)ccc2=O)cc1OC [Compound 212],> 5.00

# Same assay, conditions: U2OS_Bim cells; means of duplicates; numbering of Tables 4a/4b; read-out: EC50
row,Structure (SMILES),pEC50
1,"C#Cc1ccc(Cn2cc(-c3cc(C(F)(F)F)nc(S(C)(=O)=O)n3)ccc2=O)cc1 [Compound 122, 1-(4-ethynylbenzyl)-5-(2-(methylsulfonyl)-6-(trifluoromethyl)pyrimidin-4-yl)pyridin-2 (1H)-one]",6.00 to 9.00
2,"COc1ccc(Cn2cc(-c3cc(=O)n(C)c(S(C)(=O)=O)n3)ccc2=O)cc1OC [Compound 275, 6-(1-(3,4-dimethoxybenzyl)-6-oxo-1,6-dihydropyridin-3-yl)-3-methyl-2-(methylsulfonyl)pyrimidin-4 (3H)-one]",> 4.00
3,"COc1ccc(Cn2cc(-c3cc(C(F)(F)F)nc(S(=O)(=O)CCC(=O)N4CCCCC4)n3)ccc2=O)cc1OC [Compound 153, 1-(3,4-dimethoxybenzyl)-5-(2-((3-oxo-3-(piperidin-1-yl)propyl)sulfonyl)-6-(trifluoromethyl)pyrimidin-4-yl)pyridin-2 (1H)-one]",6.00 to 9.00
4,"CNS(=O)(=O)CCC[S+]([O-])c1nc(-c2ccc(=O)n(Cc3ccc(OC)c(OC)c3)c2)cc(C(F)F)n1 (stereo not shown) [Compound 179, 3-((4-(difluoromethyl)-6-(1-(3,4-dimethoxybenzyl)-6-oxo-1,6-dihydropyridin-3-yl)pyrimidin-2-yl)sulfinyl)-N-methylpropane-1-sulfonamide]",> 4.00
5,"CCOc1cccc(Cn2cc(-c3cc(C(F)(F)F)nc(S(C)(=O)=O)n3)ccc2=O)c1 [Compound 112, 1-(3-ethoxybenzyl)-5-(2-(methylsulfonyl)-6-(trifluoromethyl)pyrimidin-4-yl)pyridin-2 (1H)-one]",6.00 to 9.00
6,"COc1ccc(Cn2cc(-c3cc(C)nc([S+]([O-])CCC(C)OCc4ccccc4F)n3)cc(F)c2=O)cc1F (stereo not shown) [Compound 304, 3-fluoro-1-(3-fluoro-4-methoxybenzyl)-5-(2-((3-((2-fluorobenzyl)oxy)butyl)sulfinyl)-6-methylpyrimidin-4-yl)pyridin-2 (1H)-one]",> 4.00
7,CS(=O)(=O)c1nc(-c2ccc(C#N)cc2)cc(C(F)(F)F)n1 [Compound 57],> 4.00
8,"O=S(=O)(CCC(OCc1ccccc1)c1ccccc1)c1nc(-c2cccs2)cc(C(F)(F)F)n1 (stereo not shown) [Compound 291, 2-(3-(benzyloxy)-3-phenylpropylsulfonyl)-4-(thiophen-2-yl)-6-(trifluoromethyl)pyrimidine]",5.00 to 6.00
9,"C[S+]([O-])c1nc(-c2cccc3ccccc23)cc(C(F)(F)F)n1 (stereo not shown) [Compound 77, 2-(methylsulfinyl)-4-(naphthalen-1-yl)-6-(trifluoromethyl)pyrimidine]",> 4.00
10,"COc1ccc(Cn2cc(-c3cc(C(F)F)nc(S(=O)(=O)c4cccc(N)c4)n3)ccc2=O)cc1OC [Compound 180, 5-(2-((3-aminophenyl)sulfonyl)-6-(difluoromethyl)pyrimidin-4-yl)-1-(3,4-dimethoxybenzyl)pyridin-2 (1H)-one]",6.00 to 9.00
11,COCCOCCS(=O)(=O)c1nc(-c2ccc(=O)n(Cc3ccc(OC)c(OC)c3)c2)cc(C(F)(F)F)n1 [Compound 145],6.00 to 9.00
12,"C#CCn1cc(-c2cc(C(F)(F)F)nc([S+](C)[O-])n2)ccc1=O (stereo not shown) [Compound 101, 5-(2-(methylsulfinyl)-6-(trifluoromethyl)pyrimidin-4-yl)-1-(prop-2-yn-1-yl) pyridin-2 (1H)-one]",5.00 to 6.00
13,"CCCOc1cccc(Cn2cc(-c3cc(C(F)(F)F)nc([S+](C)[O-])n3)ccc2=O)c1 (stereo not shown) [Compound 114, 5-(2-(methylsulfinyl)-6-(trifluoromethyl)pyrimidin-4-yl)-1-(3-propoxybenzyl)pyridin-2 (11H)-one]",5.00 to 6.00
14,"CS(=O)(=O)c1nc(-c2cccc(O)c2)cc(C(F)(F)F)n1 [Compound 50, 3-(2-(methylsulfonyl)-6-(trifluoromethyl)pyrimidin-4-yl)phenol]",> 4.00
15,"Cc1cc(-c2cc(F)c(=O)n(Cc3ccc4c(c3)OCCO4)c2)nc(S(=O)(=O)CCC(OCc2ccccc2F)c2ccccc2)n1 (stereo not shown) [Compound 331, 1-((2,3-dihydrobenzo[b][1,4]dioxin-6-yl)methyl)-3-fluoro-5-(2-(3-(2-fluorobenzyloxy)-3-phenylpropylsulfonyl)-6-methylpyrimidin-4-yl)pyridin-2 (1H)-one]",6.00 to 9.00
16,"Cc1cc(-c2cc(F)c(=O)n(Cc3ccc4nc[nH]c4c3)c2)nc(S(=O)(=O)CCC(OCc2ccccc2F)c2ccccc2)n1 (stereo not shown) [Compound 322, 1-((1H-benzo[d]imidazol-6-yl)methyl)-3-fluoro-5-(2-(3-(2-fluorobenzyloxy)-3-phenylpropylsulfonyl)-6-methylpyrimidin-4-yl)pyridin-2 (1H)-one]",6.00 to 9.00
17,"COc1ccc(Cn2cc(-c3cc(-c4ccccc4F)nc([S+]([O-])CCC(OCc4ccccc4)c4ccccc4)n3)ccc2=O)cc1OC (stereo not shown) [Compound 297, 5-(2-((3-(benzyloxy)-3-phenylpropyl)sulfinyl)-6-(2-fluorophenyl)pyrimidin-4-yl)-1-(3,4-dimethoxybenzyl)pyridin-2 (1H)-one]",> 4.00
18,"COc1cccc([S+]([O-])c2nc(-c3ccc(=O)n(Cc4ccc(OC)c(OC)c4)c3)cc(C(F)F)n2)c1 (stereo not shown) [Compound 175, 5-(6-(difluoromethyl)-2-((3-methoxyphenyl)sulfinyl)pyrimidin-4-yl)-1-(3,4-dimethoxybenzyl)pyridin-2 (1H)-one]",6.00 to 9.00
19,"Cc1cc(-c2cc(F)c(=O)n(Cc3ccc4c(cnn4C)c3)c2)nc(S(=O)(=O)CCC(OCc2ccccc2F)c2ccccc2)n1 (stereo not shown) [Compound 327, 3-fluoro-5-(2-(3-(2-fluorobenzyloxy)-3-phenylpropylsulfonyl)-6-methylpyrimidin-4-yl)-1-((1-methyl-1H-indazol-5-yl)methyl)pyridin-2 (1H)-one]",6.00 to 9.00
20,"COc1ccc(Cn2cc(-c3nc(S(=O)(=O)CCC(OCc4ccccc4)c4ccccc4)nc4ccccc34)ccc2=O)cc1OC (stereo not shown) [Compound 293, 5-(2-((3-(benzyloxy)-3-phenylpropyl)sulfonyl)quinazolin-4-yl)-1-(3,4-dimethoxybenzyl)pyridin-2 (1H)-one]",6.00 to 9.00
21,"CS(=O)(=O)c1nc(-c2ccc(=O)[nH]c2)cc(C(F)(F)F)n1 [Compound 99, 5-(2-(methylsulfonyl)-6-(trifluoromethyl)pyrimidin-4-yl)pyridin-2 (1H)-one]",> 4.00
